Data as given in US20080311589A1, “METHOD OF HIGH-THROUGHPUT SCREENING OF MOLECULES AND COMPOUNDS FOR THEIR EFFECTS ON BIOLOGICAL AND CHEMICAL PROCESSES” (priority 1999, published 2008).
Peptide text beside a SMILES is read from it.

Columns and labels:
[1] = test system: Mv1Lu mink lung epithelial cells; experiment: 384 well anti-BrdU cytoblot; type: cell-based; details: 384-well plate; antiproliferative agents 24 hours, then 10 μM BrdU 16 hours (FIG. 2)
Description: FIG. 1. An immunodetection assay for DNA synthesis in high density arrays of mammalian cells. (a) Cartoon depiction of an anti-BrdU cytoblot. The thymine analog 5-bromodeoxyuridine (BrdU) is incorporated into the DNA of cells that are actively replicating their DNA. The cells are in the well, and BrdU is detected with a two step antibody binding procedure. The second antibody is conjugated to the enzyme horseradish peroxidase. In the presence of the chemiluminescent substrate luminol as well as hydrogen peroxide, light of wavelength 428 nm is generated. The light emission can be detected by exposing the plate to film. (b) A cytoblot can detect TGF-β's ability to prevent BrdU incorporation in mink lung epithelial cells. 2000 Mv1Lu mink lung epithelial cells were seeded in each well of a white, opaque 384 well plate. The cells were seeded in the indicated concentrations of TGF-β in 50 μL of DMEM with 1% fetal bovine serum (FBS), 100 units/mL penicillin G sodium, 100 μg/mL streptomycin sulfate and 100 μM each of the amino acids alanine, aspartic acid, glutamine, glycine, asparagine and proline (referred to throughout as 1% mink medium) and allowed to incubate at 37° C. with 5% CO2. After 16 hours, 5.5 μL of 100 μM BrdU in 1% mink medium was added to each well, for a final concentration of 10 μM BrdU. The cells were incubated at 37° C. with 5% CO2 for an additional 16 hours and then an anti-BrdU cytoblot protocol was performed (see protocol). Wells shown are magnified 4×.
FIG. 2. A cytoblot can detect the ability of numerous antiproliferative agents to inhibit BrdU incorporation. 2000 Mv1Lu mink lung epithelial cells were seeded in each well of a white, opaque 384 well plate. The cells were seeded in 40 μL of 1% mink media and immediately 40 μL of 2× stocks of the reagents shown was added to each well and the cells were allowed to incubate at 37° C. with 5% CO2. After 24 hours, 9 μL of 100 μM BrdU in 1% mink medium was added to each well, for a final concentration of 10 μM BrdU. The cells were incubated at 37° C. with 5% CO2 for an additional 16 hours and then an anti-BrdU cytoblot protocol was performed (see protocol). Wells shown are magnified 2.5×.
The ability of the cytoblot assay to detect changes in DNA synthesis was tested by measuring the incorporation of 5-bromodeoxyuridine (BrdU, Sigma Corporation, St. Louis, Mo., Cat.# B9285) into DNA in the presence or absence of the anti-mitogen transforming growth factor β (TGF-β). Mink lung cells, which are responsive to TGF-β, were seeded into each well of an opaque, white 384-well plate. The cells were subsequently treated with varying concentrations of TGF-β for 16 hours and then with 10 μM BrdU for 16 hours. […] The following protocols provide experimental detail. […]

[2] = test system: hyperacetylated histone H4; experiment: 384 well anti-acetylated histone H4 cytoblot; type: cell-based, human; details: A549 cells; 300 nM trichostatin A, 100 nM trapoxin, 24 hours
Protocol: FIG. 5. An immunodetection assay for the accumulation of hyperacetylated histone H4 in high density arrays of mammalian cells. A549 human lung carcinoma cells were seeded at a density of 4000 cells in 40 μL of DMEM+ in each well of an opaque 384 well plate and incubated overnight at 37° C. with 5% CO2. Cells were either untreated, washed once and treated with 0.5% serum, 80 pM TGF-β, 300 nM trichostatin A, 100 nM trapoxin or 250 nM nocodazole and incubated for 24 hours at 37° C. with 5% CO2 in a final volume of 50 μL. A cytoblot was performed (see Protocol) and the presence of the hyperacetylated form of histone H4 was detected using a two step antibody binding procedure using an anti-acetylated H4 antibody and a secondary antibody conjugated to the enzyme horseradish peroxidase. Wells are shown magnified 25×.
Any post-translational modification that can be recognized by an antibody (or ligand) may be used in a cytoblot screen. […] In addition, antibodies against the phosphorylated form of nucleolin (FIG. 6a) or histone H3 (FIG. 6b) were used to detect the presence of phosphonucleolin or phosphohistone H3 respectively, both of which server as biochemical markers of the mitotic state of cells (Anderson et al. Experimental Cell Research 238: 498-502 1998; Vincent et al. J. Cell. Biol. 132:413-425. 1996)). The following protocol provides experimental detail. […]

[3] = test system: 6F mink lung epithelial cells; experiment: anti-BrdU cytoblot for suppressors of rapamycin; type: cell-based
Description: FIG. 9. […] A 4 mm scale bar is shown. […] A 4 mm scale bar is shown.

With `O=C(CCCCC[C@@H]1NC(=O)[C@H]2CCCCN2C(=O)[C@H](Cc2ccccc2)NC(=O)[C@H](Cc2ccccc2)NC1=O)C1CO1` (stereo partly shown) [trapoxin, trapoxin A] (HELM PEPTIDE1{F.F.[O=C([C@H]1CCCCN1[*:1])[*:2]].[O=C(CCCCC[C@H](N[*:1])C(=O)[*:2])C1CO1]}$PEPTIDE1,PEPTIDE1,1:R1-4:R2$$$V2.0) the BrdU incorporation [1] was “effectively prevent BrdU incorporation” and the “acetylation of histone H4” value [2] was “increase in the acetylation of histone H4”.

`C=CC[C@@H]1/C=C(\C)C[C@H](C)C[C@H](OC)[C@H]2O[C@@](O)(C(=O)C(=O)N3CCCC[C@H]3C(=O)O[C@H](/C(C)=C/[C@@H]3CC[C@@H](O)[C@H](OC)C3)[C@H](C)[C@@H](O)CC1=O)[C@H](C)C[C@@H]2OC` [FK506] was tested, and the “excess of FK506 that suppresses the antiproliferative effect of rapamycin” value ([3]; rapamycin and FK506 together 16 hours, then with BrdU 16 hours) was 30-100 fold.

`CO[C@H]1C[C@@H]2CC[C@@H](C)[C@@](O)(O2)C(=O)C(=O)N2CCCC[C@H]2C(=O)O[C@H]([C@H](C)C[C@@H]2CC[C@@H](O)[C@H](OC)C2)CC(=O)[C@H](C)/C=C(\C)[C@@H](O)[C@@H](OC)C(=O)[C@H](C)C[C@H](C)/C=C/C=C/C=C/1C` [rapamycin] was tested, and the “concentration that prevents BrdU incorporation” value ([3]; 6F mink lung cells) was 20 nM.
